Values after ≈ are worked out from the molar mass of the structure shown. Like-named read-outs stand apart in the source and are kept apart here.
Experiments:
[1] = test system: aconitine-induced arrhythmia in rats; experiment: Antiarrhythmic effect on aconitine-induced arrhythmia in the rat (oral); type: in vivo, rat (Sprague Dawley, male); conditions: for ED50: Rattus norvegicus, po, 1 h, read-out: Effective dose EC 50% (dose which prolongs the aconitine infusion time by 50%); for Effective dose R.A. (relative activity): rat, reference substance B = 1.00
Experimental: (§1) Moreover, the antiarrhythmic activity of the novel substances is determined on male rats (Sprague Dawley, weight 200 to 230 g), after oral administration. 45 minutes after administration of the substance, the animals are anesthetized with sodium thiobutabarbital (100 mg/kg, administered intraperitoneally). Aconitine is used as the arrhythmogenic substance, and is infused intravenously at a rate of 0.005 mg/kg per min, 60 minutes after administration of the test substance. […] The dose which prolongs the infusion time by 50%, i.e. the ED 50%, is determined from the linear relationship between log dose (mg/kg) of the test substance and the relative prolongation of the aconitine infusion time (%).

[2] = test system: isolated guinea pig atrium; experiment: Isolated guinea pig left atria: decrease in force of contraction (negatively inotropic effect); design: species or system guinea pig (Pirbright white, male); conditions: for EC25: Cavia porcellus, isolated left atria, pH 7.4, 32° C., read-out: Force of contraction EC 25% (concentration which causes a 25% decrease in the force of contraction); for Q: quotient EC 25% (decrease in force of contraction)/EC 50% (decrease in maximum driving rate): isolated guinea pig atrium; for Force of contraction R.A. (relative activity): reference substance B = 1.00
Experimental: (§2) The antiarrhythmic activity of the compound according to the invention is determined on isolated left atria of male guinea pigs (Pirbright white, weight 350 to 450 g). Atria suspended in an organ bath (volume 125 ml) containing carbogen (95% O2 /5% CO2)-saturated Tyrode's solution (pH 7.4, 32° C.) are prestressed with 1.0 g and are driven by square wave pulses of 1 Hz base rhythm and double stimulation threshold values (rheo base: 0.2 to 1.4 V, chronaxia: 0.3 to 0.5 msec). As a criterion of the antiarrhythmic activity, the frequency (in Hz) at which the atria are just still able to follow the sequence of pulses (the maximum driving rate) is determined by automatic continuous increase in frequency. The concentration which produces a 50% decrease in maximum driving rate, i.e. the EC 50%, is calculated from the linear relationship between log concentration (mg/1) of the active substance and relative decrease in maximum driving rate (Δ%).
Furthermore, the concentration which produces a 25% decrease in contraction amplitude, i.e. the EC 25%, is determined, as a measure of the negatively inotropic effect, from the linear relationship between log concentration (mg/1) and relative change in contraction amplitude (Δ%).

[3] = test system: isolated guinea pig atrium; experiment: Isolated guinea pig left atria: decrease in maximum driving rate (antiarrhythmic activity); design: species or system guinea pig (Pirbright white, male); conditions: for EC50: Cavia porcellus, isolated left atria, pH 7.4, 32° C., read-out: Maximum driving rate EC 50% (concentration which causes a 50% decrease in the maximum driving rate); for Maximum driving rate R.A. (relative activity): reference substance B = 1.00
Experimental: as §2

[4] = Toxicity in the rat (oral), dose at which toxic symptoms occur; type: in vivo, rat (Sprague Dawley, male); conditions: in vivo, read-out: Q: quotient of the acute toxic dose and the antiarrhythmic ED 50%
Experimental: as §1
(§3) Further, the dose at which toxic symptoms (changes in the initial ECG, cyanosis or cramp) occur is determined. The quotient of the acute toxic dose and the antiarrhythmic ED 50% is therefore determined as a measure of the toleration.

rat = experiment: as above; type: in vivo, rat (Sprague Dawley, male); conditions: for Toxic dose (dose after whose administration the first toxic symptoms are observed): changes in the initial ECG, cyanosis or cramp
Experimental: as §1, §3

[5] = test system: blood pressure of unanesthetized dogs; experiment: Effect on the blood pressure of unanesthetized dogs (intravenous); type: in vivo, dog
Experimental: Moreover, the effect of the compound according to the invention on the systolic and diastolic blood pressure of unanesthetized dogs on intravenous administration is tested.

[6] = test system: isolated strips of rat aorta; experiment: Constrictive effect on isolated strips of rat aorta; conditions: for EC50: spiral strips of rat aorta, 37° C.
From the text: The novel compounds are further characterized by investigation whether, in addition to antiarrhythmic properties, stimulating effects on smooth muscle, which may lead to undesirable side effects (hypertension or stimulation of the uterus), are detectable.

[7] = read-out: EC 50, constrictive effect (50% of the contraction obtained with noradrenalin 10^-6 mol/l)

SMILES | ED50 [1] [mg/kg] | Effective dose R.A. (relative activity) ([1]; oral) | EC25 [2] [µg/mL] | Q: quotient EC 25% (decrease in force of contraction)/EC 50% (decrease in maximum driving rate) [2] | Force of contraction R.A. (relative activity) [2] | EC50 [3] [µg/mL] | Maximum driving rate R.A. (relative activity) [3] | selectivity ratio [4] | Toxic dose (dose after whose administration the first toxic symptoms are observed) (rat) [mg/kg] | effect on systolic and diastolic blood pressure (in words) [5] | Change in blood pressure, diastolic ([5]; 2.0 mg/kg) | Change in blood pressure, systolic ([5]; 2.0 mg/kg) | EC50 [6, 7] [µM] | further results
c1ccc(CN2CC3CC(C2)CN(CC(c2ccccc2)c2ccccc2)C3)cc1 [A, N-benzyl-N'-(2,2-diphenylethyl)-bispidine] | 13 | 1.75 | 4.92 (≈ 12.4 µM) | 3.44 | 4.43 | 1.43 (≈ 3.61 µM) | 3.93 | 7.7 | 100 | – | – | – | – | –
c1ccc(CN2CC3CC(C2)CN(Cc2ccccc2)C3)cc1 [B, N,N'-bisbenzylbispidine] | 22.7 | – | 21.8 (≈ 71.1 µM) | 3.68 | – | 5.92 (≈ 19.3 µM) | – | 4.4 | 100 | substantial increase in the systolic and in particular in the diastolic blood pressure | +59 Δmm Hg | +20 Δmm Hg | 3.8 | –
Nc1ccc(C(=O)N2CC3CC(CN(Cc4ccccc4)C3)C2)cc1 [C, N-(4-Aminobenzoyl)-N'-benzylbispidine] | 6.37 | 3.56 | 100 (≈ 298 µM) | 16.3 | 0.22 | 6.14 (≈ 18.3 µM) | 0.96 | 7.3 | 46.4 | no hypertensive effect | -2 Δmm Hg | -5 Δmm Hg | – | antiarrhythmic activity relative to reference substance A ([1]; aconitine-induced arrhythmia in rats, oral, versus A): twice; antiarrhythmic activity relative to reference substance B ([1]; aconitine-induced arrhythmia in rats, oral, versus B): about 4 times; antiarrhythmic activity relative to sparteine ([1]; aconitine-induced arrhythmia in rats, oral, versus sparteine): ~18 times; decrease in the force of contraction (in words) ([2]; isolated guinea pig atria): relatively small decrease in the force of contraction; antiarrhythmic effect on isolated guinea pig atria (in words) ([3]; decrease in maximum driving rate): powerful antiarrhythmic effect; difference between toxic and antiarrhythmic doses, relative to reference substances (rat; versus reference substances): about twice the difference or about the same difference, respectively; stimulating effects on smooth muscle (in words) ([6]; Table 3): lack of stimulating effects on smooth muscle; constrictive effect on the vascular muscle in vitro (in words) ([6]; even in very high concentrations (3.10^-4 mol/l)): no constrictive effect; EC50 ([6]; no effect up to 3.10^-4 mol/l, read-out: EC 50, constrictive effect (symbol for no effect)): > 300 µM
C1CCN2C[C@@H]3C[C@@H](CN4CCCC[C@@H]34)[C@H]2C1 [Sparteine, sparteine] | 112 | 4.93 | – | – | – | – | – | 4.1 | 464 | substantial increase in the systolic and in particular in the diastolic blood pressure | – | – | 550 | Change in blood pressure, diastolic ([5]; 5.0 mg/kg): +40 Δmm Hg; Change in blood pressure, systolic ([5]; 5.0 mg/kg): +19 Δmm Hg

— patent publication US4556662A, “Bispidine derivatives and antiarrhythmic compositions” (BASF Aktiengesellschaft, priority 1981, dated 1985)
